Results: patent US20020137929A1, “1 - (3-heterocyclylphenyl) isothiourea, -isourea, -guanidine and -amidine herbicidal agents” (Intellectual Property Department, BASF Aktiengesellschaft, priority 1998, published 2002)

Tests used:
ORYSAT (Rice, Tebonnet) = assay: Preemergence herbicidal evaluation; format: in vivo, Oryza sativa, (L.) Tebonnet; conditions: rated 4-5 weeks after treatment
Outline: (§1)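 Each species is sown separately in potting soil over roughly an inch of soil before any emergence. The soil surface then receives an aqueous acetone spray delivering about 0.0156 to 0.500 kg/ha of compound. After four to five weeks, injury is scored from 0 to 9 relative to a control.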

SETVI (Foxtail, Green) = assay: Preemergence herbicidal evaluation; format: in vivo, Setaria viridis; conditions: rated 4-5 weeks after treatment
Outline: as §1

[1] = system: GLXMAW (Soybean, Williams); assay: Postemergence herbicidal evaluation; format: in vivo, Glycine max, (L.) Merr. cv Williams
Outline: (§2)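 Seedlings grown about two weeks were sprayed at 40 psi with compound dispersed in 50/50 acetone/water plus 0.5% TWEEN 20, at about 0.0156 to 0.500 kg/ha. Plants were kept in the greenhouse and scored 4–5 weeks later on a 0–9 visual scale against untreated controls.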

CYPSE (Flatsedge) = assay: Preemergence weed control under flooded paddy conditions; format: in vivo, Cyperus serotinus; conditions: rated 3-4 weeks after treatment
Outline: (§3)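 Seeds or propagules sown in silt loam kept flooded 1.5-3 cm; compounds in 50/50 acetone/water pipetted into flood water at about 0.0313 to 0.500 kg/ha. Greenhouse; visual 0-9 rating versus untreated control 3-4 weeks after treatment.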

GALAP (Galium) [2] = assay: Postemergence herbicidal evaluation; format: in vivo, Galium aparine
Outline: as §2

[3] = system: SAGPY (Arrowhead (Pygmaea)); assay: Postemergence weed control under flooded paddy conditions; format: in vivo, Sagittaria pygmaea; conditions: postemergence weeds, 3-4 weeks after treatment
Outline: (§4)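 Injury ratings (0–9 scale covering stand, vigor, malformation, size, chlorosis and overall appearance versus control) were made three to four weeks after treatment. Test material, about 0.0313 to 0.500 kg/ha a.i. in 50/50 v/v aqueous/acetone, was added to flood water 1.5 to 3 cm deep over 3 to 5 cm weeds and 1.5 to 2.5 leaf rice.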

[4] = system: TRZAWR (Wheat, Winter, cv Riband); assay: Postemergence herbicidal evaluation; format: in vivo, Triticum aestivum
Outline: as §2

CASOB (Sicklepod) = assay: Postemergence herbicidal evaluation; format: in vivo, Cassia obtusifolia
Outline: as §2

[5] = system: SAGPY (Arrowhead (Pygmaea)); assay: Preemergence weed control under flooded paddy conditions; format: in vivo, Sagittaria pygmaea; conditions: rated 3-4 weeks after treatment
Outline: as §3

[6] = system: ECHORC (Watergrass (Calif.)); assay: as above; format: in vivo, Echinochloa oryzoides; conditions: rated 3-4 weeks after treatment
Outline: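 Visual injury scored 0-9 against control three to four weeks post-treatment, greenhouse-grown. Application: acetone/water (50/50) solutions dosed directly into flood water (1.5-3 cm over silt loam, planted top 0.5 cm), roughly 0.0313 to 0.500 kg/ha active ingredient.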

AMBEL (Ragweed, Common) = assay: Postemergence herbicidal evaluation; format: in vivo, Ambrosia artemisifolia
Outline: as §2

GALAP (Galium) [7] = assay: Preemergence herbicidal evaluation; format: in vivo, Galium aparine; conditions: rated 4-5 weeks after treatment
Outline: as §1

[8] = system: ECHORC (Watergrass (Calif.)); assay: Postemergence weed control under flooded paddy conditions; format: in vivo, Echinochloa oryzoides; conditions: postemergence weeds, 3-4 weeks after treatment
Outline: as §4

CCOC(=O)CN1C(=O)C(Cc2ccccc2OC)SC1=Nc1cc(-n2c(=O)cc(C(F)(F)F)n(C)c2=O)c(F)cc1Cl (centres unmarked) [Compound 37, Ethyl 2-{{2-chloro-5-[3,6-dihydro-3-methyl-2,6-dioxo-4-(trifluoromethyl)-1(2H)-pyrimidinyl]-4-fluorophenyl}imino}-5-(o-methoxybenzyl)-4-oxo-3-thiazolidineacetate]
Preemergence herbicidal rating ORYSAT (ORYSAT (Rice, Tebonnet); rate 0.1250 kg/ha): 0.0
Preemergence herbicidal rating ORYSAT (ORYSAT (Rice, Tebonnet); rate 0.2500 kg/ha): 0.0
Preemergence herbicidal rating SETVI (SETVI (Foxtail, Green); rate 0.1250 kg/ha): 0.0
Preemergence herbicidal rating SETVI (SETVI (Foxtail, Green); rate 0.2500 kg/ha): 0.0
Postemergence herbicidal rating GLXMAW ([1]; Rate 0.0158 kg/ha): 4.5
Postemergence herbicidal rating GLXMAW ([1]; Rate 0.0315 kg/ha): 5.0
Postemergence herbicidal rating GLXMAW ([1]; Rate 0.0630 kg/ha): 5.0
Herbicidal rating CYPSE (CYPSE (Flatsedge); 0.0313 kg/ha): 0.0
Herbicidal rating CYPSE (CYPSE (Flatsedge); 0.0625 kg/ha): 0.0
Herbicidal rating CYPSE (CYPSE (Flatsedge); 0.1250 kg/ha): 0.0
Herbicidal rating CYPSE (CYPSE (Flatsedge); 0.2500 kg/ha): 0.0
Postemergence herbicidal rating GALAP (GALAP (Galium) [2]; Rate 0.0158 kg/ha): 1.0
Postemergence herbicidal rating GALAP (GALAP (Galium) [2]; Rate 0.0315 kg/ha): 3.0
Postemergence herbicidal rating GALAP (GALAP (Galium) [2]; Rate 0.0630 kg/ha): 4.0
Herbicidal rating SAGPY ([3]; rate 0.0313 kg/ha): 0.0
Herbicidal rating SAGPY ([3]; rate 0.0625 kg/ha): 0.0
Herbicidal rating SAGPY ([3]; rate 0.1250 kg/ha): 0.0
Herbicidal rating SAGPY ([3]; rate 0.2500 kg/ha): 3.0
Postemergence herbicidal rating TRZAWR ([4]; Rate 0.0158 kg/ha): 2.0
Postemergence herbicidal rating TRZAWR ([4]; Rate 0.0315 kg/ha): 2.0
Postemergence herbicidal rating TRZAWR ([4]; Rate 0.0630 kg/ha): 2.0
Postemergence herbicidal rating CASOB (CASOB (Sicklepod); Rate 0.0158 kg/ha): 0.0
Postemergence herbicidal rating CASOB (CASOB (Sicklepod); Rate 0.0315 kg/ha): 0.0
Postemergence herbicidal rating CASOB (CASOB (Sicklepod); Rate 0.0630 kg/ha): 0.0
Herbicidal rating SAGPY ([5]; 0.0313 kg/ha): 0.0
Herbicidal rating SAGPY ([5]; 0.0625 kg/ha): 0.0
Herbicidal rating SAGPY ([5]; 0.1250 kg/ha): 0.0
Herbicidal rating SAGPY ([5]; 0.2500 kg/ha): 3.0
Herbicidal rating ECHORC ([6]; 0.0313 kg/ha): 4.0
Herbicidal rating ECHORC ([6]; 0.0625 kg/ha): 6.0
Herbicidal rating ECHORC ([6]; 0.1250 kg/ha): 7.0
Herbicidal rating ECHORC ([6]; 0.2500 kg/ha): 7.0
Postemergence herbicidal rating AMBEL (AMBEL (Ragweed, Common); Rate 0.0158 kg/ha): 3.0
Postemergence herbicidal rating AMBEL (AMBEL (Ragweed, Common); Rate 0.0315 kg/ha): 9.0
Postemergence herbicidal rating AMBEL (AMBEL (Ragweed, Common); Rate 0.0630 kg/ha): 9.0
Preemergence herbicidal rating GALAP (GALAP (Galium) [7]; rate 0.1250 kg/ha): 0.0
Preemergence herbicidal rating GALAP (GALAP (Galium) [7]; rate 0.2500 kg/ha): 9.0
Herbicidal rating ECHORC ([8]; rate 0.0313 kg/ha): 4.0
Herbicidal rating ECHORC ([8]; rate 0.0625 kg/ha): 6.0
Herbicidal rating ECHORC ([8]; rate 0.1250 kg/ha): 7.0
Herbicidal rating ECHORC ([8]; rate 0.2500 kg/ha): 7.0
